These results are taken from PubChem BioAssay (NCI).

Test systems include 786-0 renal; A549 NSCLC; HOP-92 NSCLC; LOX IMVI melanoma; MDA-MB-231 breast; MOLT-4 leukemia; SF-268 CNS; SR leukemia; SW-620 colon; UO-31 renal.
Holding throughout (assay): growth of human tumour cells (NCI), 48 h

The structures appear in SMILES notation.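 Cells were grown in 96-well plates and exposed to each compound for 48 hours at five concentrations; endpoints were interpolated linearly between bracketing concentrations, or set to the highest concentration if not reached. TGI denotes the concentration required for complete inhibition of growth.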

On to `COc1cc2ncnc(Nc3cccc(Br)c3)c2cc1OC`, for which the TGI in the test on 786-0 renal is 4.8 µM; with A549 NSCLC it was greater than 69.1 µM; in the test on HOP-92 NSCLC, 36.3 µM; with LOX IMVI melanoma, 10.2 µM; in the test on MDA-MB-231 breast it was 21.5 µM; in the test with MOLT-4 leukemia, greater than 65.5 µM. The TGI is greater than 89.6 µM in the test with SF-268 CNS, greater than 31.6 µM in the test with SR leukemia, greater than 50.2 µM in the test on SW-620 colon and 33.6 µM in the test with UO-31 renal.

As to `COP(=O)(OC)[C@@](O)(c1ccccc1)[C@@H](O)[C@H](O)c1ccccc1`, the TGI in the test on 786-0 renal is greater than 100 µM; with A549 NSCLC it was greater than 100 µM; in the test on HOP-92 NSCLC it was greater than 100 µM; in the test on LOX IMVI melanoma it was 56.4 µM; in the test on MDA-MB-231 breast, greater than 100 µM; in the test with MOLT-4 leukemia it was greater than 100 µM. The TGI with SF-268 CNS, in the test on SR leukemia, with SW-620 colon and in the test with UO-31 renal was greater than 100 µM each time.

Consider `COc1ccc(C2c3cc4c(cc3OC(N3CCOCC3)C2C)OCO4)cc1OC` (stereo not given), for which the TGI was 53.8 µM with 786-0 renal; greater than 85 µM in the test with A549 NSCLC; greater than 92.3 µM in the test with HOP-92 NSCLC; greater than 93.7 µM in the test on LOX IMVI melanoma; greater than 100 µM in the test on MDA-MB-231 breast; 77.9 µM in the test with MOLT-4 leukemia. Moreover, the TGI with SF-268 CNS, in the test with SR leukemia, in the test on SW-620 colon and with UO-31 renal was greater than 100 µM in each case.

On to `CCN1CC2=C(OC(N)=C(C#N)C2c2ccc(Cl)cc2)/C(=C/c2ccc(Cl)cc2)C1` (stereo not given), for which the TGI was 29.8 µM with 786-0 renal; 49.1 µM with A549 NSCLC; 58.6 µM in the test with HOP-92 NSCLC; greater than 100 µM in the test on LOX IMVI melanoma; 69.2 µM with MDA-MB-231 breast; greater than 100 µM in the test with MOLT-4 leukemia. The TGI in the test with SF-268 CNS is 49.6 µM; with SR leukemia it was greater than 100 µM; in the test with SW-620 colon it was greater than 100 µM; with UO-31 renal, greater than 100 µM.

With `CCCCCCc1cc2cc(C(=O)Nc3nc(C45CC6CC(CC(C6)C4)C5)cs3)c(=O)oc2cc1O`, the TGI amounted to 25.6 µM in the test on 786-0 renal; 54.4 µM in the test on A549 NSCLC; 24.4 µM in the test with HOP-92 NSCLC; 30.9 µM with LOX IMVI melanoma; 22.3 µM in the test with MDA-MB-231 breast; 49.5 µM with MOLT-4 leukemia. Besides, the TGI in the test with SF-268 CNS is 63 µM; with SR leukemia, 26.4 µM; with SW-620 colon it was greater than 100 µM; in the test with UO-31 renal it was 67.6 µM.

Regarding `COc1nc2ncc([C@@H](OC(C)=O)[C@@H](COC(C)=O)OC(C)=O)nc2c(=O)n1C`, the TGI in the test on 786-0 renal, with A549 NSCLC, in the test with HOP-92 NSCLC, in the test with LOX IMVI melanoma, in the test with MDA-MB-231 breast and with MOLT-4 leukemia was greater than 100 µM throughout. For the same molecule, the TGI with SF-268 CNS, with SR leukemia, in the test on SW-620 colon and with UO-31 renal was greater than 100 µM in each case.

On to `CCCCOc1ccc(/C=C/C2=[N+](CCO)CCO2)cc1`, for which the TGI with 786-0 renal, in the test on A549 NSCLC, with HOP-92 NSCLC, in the test on MDA-MB-231 breast, in the test with MOLT-4 leukemia and in the test on SF-268 CNS was greater than 100 µM each time. The TGI in the test with SR leukemia is 62.7 µM; with SW-620 colon, 86.5 µM; in the test with UO-31 renal, greater than 100 µM.

As to `O=[N+]([O-])C1=Cc2c(O)ccc(O)c2C2OC=CC12` (stereo not given), the TGI with 786-0 renal is 32.6 µM; in the test with A549 NSCLC it was 43.4 µM; in the test on HOP-92 NSCLC, 58.8 µM; with LOX IMVI melanoma, 42.6 µM; with MDA-MB-231 breast it was 40.1 µM; in the test with MOLT-4 leukemia, greater than 46.8 µM. The TGI in the test on SF-268 CNS is 35.5 µM; in the test with SR leukemia it was greater than 74.5 µM; with SW-620 colon, greater than 77.4 µM; in the test with UO-31 renal it was 29.7 µM.

On to `COC(=O)C12CCCN1CCC2`, for which the TGI with 786-0 renal, in the test on A549 NSCLC, in the test with LOX IMVI melanoma, in the test with MDA-MB-231 breast, with MOLT-4 leukemia and in the test with SF-268 CNS was greater than 100 µM each time. Besides, the TGI in the test with SR leukemia, in the test with SW-620 colon and in the test on UO-31 renal was greater than 100 µM each time.

As to `CC(C)(C)c1ccc(O)c(C(O)c2ccccn2)c1` (stereo not given), the TGI in the test with 786-0 renal, in the test on A549 NSCLC, in the test on LOX IMVI melanoma, in the test on MDA-MB-231 breast, in the test with MOLT-4 leukemia and with SF-268 CNS was greater than 100 µM throughout. Moreover, the TGI with SR leukemia, in the test on SW-620 colon and in the test with UO-31 renal was greater than 100 µM throughout.

Take `COC(=O)C12C(=O)CC3CCC1C32C(=O)OC` (stereo not given): the TGI with 786-0 renal, in the test with A549 NSCLC, with LOX IMVI melanoma, with MDA-MB-231 breast, with MOLT-4 leukemia and in the test on SF-268 CNS was greater than 100 µM each time. Further, the TGI in the test on SR leukemia, in the test with SW-620 colon and with UO-31 renal was greater than 100 µM in each case.

Regarding `O=C(CN1CCCCC1)c1ccc2[nH]c(=O)oc2c1`, the TGI with 786-0 renal, in the test on LOX IMVI melanoma, in the test with MDA-MB-231 breast, in the test on MOLT-4 leukemia, in the test with SF-268 CNS and with SR leukemia was greater than 100 µM throughout. Also, in the test with SW-620 colon, the TGI is greater than 100 µM.

`COc1cc(OC)c(-n2[nH]c(=O)n(C)c2=O)c(OC)c1`: the TGI in the test on 786-0 renal, in the test on A549 NSCLC, in the test on LOX IMVI melanoma, with MDA-MB-231 breast, in the test with MOLT-4 leukemia and in the test on SF-268 CNS was greater than 100 µM each time. Also, the TGI with SR leukemia, in the test on SW-620 colon and in the test on UO-31 renal was greater than 100 µM in each case.

Consider `C[N+](C)(N)Cc1nc(-c2ccc(Cl)cc2)no1`, for which the TGI in the test on 786-0 renal, in the test on A549 NSCLC, in the test with HOP-92 NSCLC, in the test with LOX IMVI melanoma, in the test with MDA-MB-231 breast and with MOLT-4 leukemia was greater than 100 µM in each case. The TGI in the test on SR leukemia and with SW-620 colon was greater than 100 µM throughout.
